Reference: ChEMBL document CHEMBL3600290, “From hybrid compounds to targeted drug delivery in antimalarial therapy” (Bioorg Med Chem, 2015)
≈ marks a conversion by molar mass, not a printed value. Numbered stars: 1 amine (or outer) side, 2 acyl side, 3 side chain; on linkers, the order of the positions; unused ones are H or OH. Square brackets hold non-standard residues; d marks the D form. Peptide text beside a SMILES is read from it. * marks the point of attachment. hPhe = N[C@@H](CCc1ccccc1)C(=O)O; Morpholide = C1CN(*)CCO1; CO = O=C([*:1])[*:2]

What was measured:
Plasmodium falciparum [1] = experiment: Antimalarial activity against Plasmodium falciparum NF54 assessed as inhibition of parasite growth; assay type: functional, organism-based
[2] = Inhibition of Plasmodium falciparum FP2
Plasmodium falciparum [3] = experiment: Antimalarial activity against Plasmodium falciparum W2 assessed as inhibition of parasite growth; assay type: functional, organism-based
Plasmodium berghei = experiment: Antimalarial activity against liver stage of Plasmodium berghei; assay type: functional, organism-based
Plasmodium falciparum [4] = experiment: Antimalarial activity against Plasmodium falciparum 3D7 assessed as inhibition of parasite growth; assay type: functional, organism-based
Plasmodium falciparum [5] = experiment: Antimalarial activity against Plasmodium falciparum Dd2 assessed as inhibition of parasite growth; assay type: functional, organism-based
Plasmodium falciparum [6] = experiment: Antimalarial activity against Plasmodium falciparum FcB1; assay type: functional, organism-based
Plasmodium falciparum [7] = experiment: Antimalarial activity against Plasmodium falciparum F32; assay type: functional, organism-based
Plasmodium falciparum [8] = experiment: Antimalarial activity against Plasmodium falciparum infected in mouse assessed as cure rate at 26 to 32 mg/kg/day administered po or ip; assay type: functional
Plasmodium falciparum [9] = experiment: Antimalarial activity against Plasmodium falciparum D10 assessed as inhibition of parasite growth; assay type: functional, organism-based
Plasmodium falciparum [10] = experiment: Antimalarial activity against chloroquine-resistant Plasmodium falciparum K1 assessed as inhibition of parasite growth; assay type: functional, organism-based
Plasmodium falciparum [11] = experiment: Antimalarial activity against Plasmodium falciparum infected in mouse assessed as suppression of parasitemia at 3x10 mg/kg/day, po measured at day 4 post-infection; assay type: functional
Plasmodium falciparum [12] = experiment: Antimalarial activity against Plasmodium falciparum infected in mouse assessed as mouse survival at 3x10 mg/kg/day, po; assay type: functional
[13] = Inhibition of Plasmodium falciparum DPAP1 after 30 mins
Plasmodium falciparum [14] = experiment: Antimalarial activity against Plasmodium falciparum D6 assessed as inhibition of parasite growth; assay type: functional, organism-based
[15] = Inhibition of beta-hematin formation; assay type: physicochemical

## Clc1ccc2c(NCCNC(CCN3CCCCC3)c3ccccc3)ccnc2c1 (stereo not drawn)
Plasmodium falciparum [1]
  IC50: 7.1 nM

## COc1ccc2nc3cc(Cl)ccc3c(Nc3cccc(Nc4ccnc5cc(Cl)ccc45)c3)c2c1
Plasmodium falciparum [1]
  MIC: 0.25 µg/mL (≈ 0.489 µM)

## CC(C)C[C@H](NC(=O)c1ccc(CO[C@H]2O[C@@H]3O[C@@]4(C)CC[C@H]5[C@H](C)CC[C@@H]([C@H]2C)[C@@]35OO4)cc1)C(=O)N[C@H](/C=C/S(C)(=O)=O)CCc1ccccc1
[2]
  IC50: 3500 nM

## CC(C)C[C@@H](NC(=O)/C=C/c1ccccc1)C(=O)N[C@H](CCc1ccccc1)C(=O)Nc1ccnc2cc(Cl)ccc12
[2]
  IC50: 19600 nM

## O=C(NCCNc1ccnc2cc(Cl)ccc12)N/N=C/c1ccc(O)c(CN2CCN(c3ccnc4cc(Cl)ccc34)CC2)c1O
[2]
  IC50: 3160 nM

## COc1cc(NC(C)CCCNC2CCC3(CC2)OOC2(OO3)C3CC4CC(C3)CC2C4)c2ncccc2c1 (stereo not drawn)
Plasmodium falciparum [3]
  IC50: 22 nM
Plasmodium berghei
  IC50: 330 nM

## COc1cc(NC(C)CCCNc2ccnc3cc(Cl)ccc23)c2ncccc2c1 (stereo not drawn)
Plasmodium falciparum [4]
  IC50: 640 nM
Plasmodium falciparum [5]
  IC50: 580 nM

## CC1(C)COC2(CCC(NC3CCC(Nc4ccnc5cc(Cl)ccc45)CC3)CC2)OO1 (stereo not drawn)
Plasmodium falciparum [3]
  IC50: 15 nM
Plasmodium falciparum [6]
  IC50: 24 nM
Plasmodium falciparum [7]
  IC50: 13 nM
Plasmodium falciparum [8]
  Activity: 100%

## CC(C)CN(NC(=O)C1CCC2(CC1)OOC1(OO2)C2CC3CC(C2)CC1C3)c1nc(C#N)ncc1Br (stereo not drawn)
[2]
  IC50: 16.4 nM

## CC(C)CN(NC(=O)C1CCC(=O)CC1)c1nc(C#N)ncc1Br
[2]
  IC50: 58.4 nM

## Cc1ccc2c(c1)/C(=N/NC(N)=S)C(=O)N2CCNc1ccnc2cc(Cl)ccc12
Plasmodium falciparum [9]
  IC50: 79 nM
Plasmodium falciparum [3]
  IC50: 51 nM
[2]
  IC50: 11600 nM

## COc1cc(NC(C)CCCNC(=O)c2ccc(CO[C@H]3O[C@@H]4O[C@@]5(C)CC[C@H]6[C@H](C)CC[C@@H]([C@H]3C)[C@@]46OO5)cc2)c2ncccc2c1 (stereo partly drawn)
Plasmodium falciparum [3]
  IC50: 5.1 nM
Plasmodium berghei
  IC50: 67 nM

## C[C@H]1[C@H](OCCNCCNc2ccnc3cc(Cl)ccc23)O[C@@H]2O[C@@]3(C)CC[C@H]4[C@H](C)CC[C@@H]1[C@@]24OO3
Plasmodium falciparum [4]
  IC50: 20.5 nM
Plasmodium falciparum [5]
  IC50: 25.7 nM
Plasmodium falciparum [9]
  IC50: 21.5 nM

## C[C@@H]1CC[C@H]2C(CN3CCCCC3[C@H](O)c3cc(C(F)(F)F)nc4c(C(F)(F)F)cccc34)=C(C(F)(F)F)O[C@@H]3O[C@@]4(C)CC[C@@H]1[C@]32OO4 (stereo partly drawn)
Plasmodium falciparum [10]
  IC50: 10.6 nM
Plasmodium falciparum [6]
  IC50: 17.2 nM
Plasmodium falciparum [7]
  IC50: 15.7 nM

## COc1ccc2nccc([C@@H](O)[C@@H]3C[C@@H]4CCN3C[C@@H]4CC(=O)O[C@@H]3O[C@@H]4O[C@@]5(C)CC[C@H]6[C@H](C)CC[C@@H]([C@H]3C)[C@@]46OO5)c2c1
Plasmodium falciparum [4]
  IC50: 8.95 nM
Plasmodium falciparum [6]
  IC50: 9.59 nM

## CCN(CC)Cc1cc(C2CCC3(CC2)OOC2(OO3)C3CC4CC(C3)CC2C4)ccc1O (stereo not drawn)
Plasmodium falciparum [10]
  IC50: 5.7 nM
Plasmodium falciparum [3]
  IC50: 5.1 nM
Plasmodium falciparum [11]
  inhibition (INH): 99.8%
Plasmodium falciparum [12]
  Survival: >20 days

## CC(=O)O[C@@]1(C)CC[C@@H]2C[C@@H]1OO[C@]2(/C=C\c1ccc(Cl)cc1)c1ccccc1
Plasmodium falciparum [10]
  IC50: 23 nM

## CC(C)C[C@H](NC(=O)N1CCOCC1)C(=O)N[C@@H](CCc1ccccc1)[C@@H]1OOC2(O1)C1CC3CC(C1)CC2C3 (stereo partly drawn)
Plasmodium falciparum [4]
  IC50: 35.3 nM
[2]
  IC50: 510 nM

## CC(C)C[C@H](NC(=O)C1CCC2(CC1)OOC1(OO2)C2CC3CC(C2)CC1C3)C(=O)N[C@H](/C=C/S(=O)(=O)c1ccccc1)CCc1ccccc1 (stereo partly drawn)
Plasmodium falciparum [4]
  IC50: 28.4 nM
Plasmodium falciparum [3]
  IC50: 18.5 nM
[2]
  IC50: 1800 nM

## CC(C)C[C@H](NC(=O)C1CCC(=O)CC1)C(=O)N[C@H](/C=C/S(=O)(=O)c1ccccc1)CCc1ccccc1
Plasmodium falciparum [4]
  IC50: 288 nM
Plasmodium falciparum [3]
  IC50: 26.2 nM
[2]
  IC50: 69.1 nM

## CCCCC(C(=O)COc1c(F)c(F)cc(F)c1F)n1cc([C@@](C)(NC(=O)OCC[C@@]2(CCC(=O)NCCCN3CCCC3=O)OOC3(O2)C2CC4CC(C2)CC3C4)C2CCCC2)nn1 (stereo partly drawn)
Plasmodium falciparum [9]
  IC50: 4 nM
[13]
  IC50: 10000 nM

## CCCCC(C(=O)COc1c(F)c(F)cc(F)c1F)n1cc([C@@](C)(N)C2CCCC2)nn1 (stereo partly drawn)
Plasmodium falciparum [9]
  IC50: 5.2 nM
[13]
  IC50: 70 nM

## CC(C)(C[C@H](NC(=O)N1CCOCC1)C(=O)N[C@H](/C=C/S(=O)(=O)c1ccccc1)CCc1ccccc1)OC(=O)OCC[C@@]1(CCC(=O)NCCCN2CCCC2=O)OOC2(O1)C1CC3CC(C1)CC2C3 (stereo partly drawn)
Plasmodium falciparum [3]
  IC50: 600 nM
[2]
  IC50: 50000 nM

## CC(C)(O)C[C@H](NC(=O)N1CCOCC1)C(=O)N[C@H](/C=C/S(=O)(=O)c1ccccc1)CCc1ccccc1
Plasmodium falciparum [3]
  IC50: 180 nM
[2]
  IC50: 1020 nM

## COc1ccc(C[C@H](NC(=O)OC2CCCC3(C2)OOC2(O3)C3CC4CC(C3)CC2C4)C(=O)N[C@H]2[C@@H](O)[C@H](n3cnc4c(N(C)C)ncnc43)O[C@@H]2CO)cc1 (stereo partly drawn)
Plasmodium falciparum [3]
  IC50: 10 nM

## CC(C)C[C@H](NC(=O)N1CCOCC1)C(=O)N[C@H](C=O)CCc1ccccc1 ({Morpholide-CO}-Leu-[hPhe]-aldehyde)
[2]
  IC50: 16.3 nM

## C[C@@H]1C(=O)C[C@H]2C[C@@H]1OO[C@@]2(C)/C=C\c1ccc(C(F)(F)F)cc1C(F)(F)F [ARTEFLENE]
Plasmodium falciparum [10]
  IC50: 15 nM

## C[C@@H]1CC[C@H]2[C@@H](C)C(=O)O[C@@H]3O[C@@]4(C)CC[C@@H]1[C@]32OO4 [ARTEMISININ]
Plasmodium falciparum [10]
  IC50: 47 nM

## CCN(CC)CCCC(C)Nc1ccnc2cc(Cl)ccc12 (stereo not drawn) [CHLOROQUINE]
Plasmodium falciparum [1]
  MIC: 0.125 µg/mL (≈ 0.391 µM)

## Clc1ccc2c(NCCCN3CCC(NC(c4ccccn4)c4ccccn4)CC3)ccnc2c1 [DM-1157]
Plasmodium falciparum [5]
  IC50: 1.6 nM
Plasmodium falciparum [14]
  IC50: 0.9 nM
[15]
  IC50: 1600 nM

## COc1ccc(C[C@H](N)C(=O)N[C@H]2[C@@H](O)[C@H](n3cnc4c(N(C)C)ncnc43)O[C@@H]2CO)cc1 [PUROMYCIN]
Plasmodium falciparum [3]
  IC50: 42 nM
